Drawing on patent publication US12180172B1, “[3-(4-Methoxyphenyl)-1,2,4-oxadiazol-5-yl]methanol as an antitumor and antimicrobial compound” (KING FAISAL UNIVERSITY, priority 2023, dated 2024), this text covers antibacterial activity, antifungal activity and antiproliferative activity for one molecule.

What all share (assay type): cell-based
For one test, the system named is Escherichia coli. Put plainly: Agar plate disc-diffusion, Escherichia coli. The note with it: gram-negative; disc 10 μL of 10 mg/mL in DMSO, 37° C., 48 h. Here is the method:
(§1) The antimicrobial properties of the synthesized compounds were studied by the method of agar plate disc-diffusion. Sterilized filter papers (6 mm in diameter) were wetted with 10 μL of a solution of each compound to be tested, containing 10 mg/mL in DMSO, and the discs were allowed to air dry. The discs were then placed onto the surface of agar plates (nutrient agar for bacteria and Sabouraud's dextrose agar for fungi) seeded with the test organism. Each plate contained 15 mL of the agar medium, previously seeded with 0.2 mL of the broth culture of each organism pregrown for 18 h. The plates were incubated at 37° C. for 48 h, and 72 h for fungi. The inhibition zones were measured in mm. Discs impregnated with DMSO were used as a control, and its inhibition zone was subtracted from the tested compound actual inhibition zone.

The next test concerns Aspergillus flavus. The test can be described thus: Agar plate disc-diffusion, Aspergillus flavus. The note with it: fungus; disc 10 μL of 10 mg/mL in DMSO, 72 h. Here is the method:
as §1

Test [1] concerns Chrysosporium keratinophilum. The test can be described thus: Agar plate disc-diffusion, Chrysosporium keratinophilum. The note with it: fungus; disc 10 μL of 10 mg/mL in DMSO, 72 h. Here is the method: as §1
For a further test, the system named is Bacillus cereus. Put plainly: Agar plate disc-diffusion, Bacillus cereus. The note with it: gram positive; disc 10 μL of 10 mg/mL in DMSO, 37° C., 48 h. Here is the method:
as §1

For test [2], the system named is human prostate cancer cells (PC3). Put plainly: Cytotoxicity by SRB assay, PC3. The note with it: 0.01 μM to 100 μM for 72 h. Here is the method: (§2) The human prostate cancer cells (PC3) and human osteosarcoma cells (MG-63) were obtained from Nawah Scientific Inc. (Mokatam, Cairo, Egypt) and cultured in DMEM (Dulbecco's modified eagle's medium), Gibco, USA, supplemented with fetal bovine serum (FBS) at a concentration of 10% and 100 U/mL of penicillin and streptomycin (PS). The Cells were incubated at 37° C. in a humidified environment that contained 5% CO2. Cells were seeded in 96-well plates as aliquots of 100 μL cell suspension and incubated in a complete media for 24 h. afterward, cells were treated with [3-(4-methoxyphenyl)-1,2,4-oxadiazol-5-yl]methanol at diverse concentrations ranging from 0.01 μM to 100 μM for 72 h. Then, cells were fixed at 4° C. for one hour with 150 μL of 10% trichloroacetic acid (TCA). After washing the cells five times with distilled water, 70 μL of sulforhodamine (SRB) solution (0.4% w/v) was added and incubated for 10 min at room temperature in a dark place. […] Then, 150 μL of Tris pH 10.5 (10 mM) was added, and the absorbance was measured at 540 nm using a BMG LABTECH®-FLUOstar Omega microplate reader (Ortenberg, Germany). Half maximal inhibitory concentrations (IC50) values were calculated for each experiment using GraphPad Prism 6 software. […] The inhibition was calculated using the following equation: Inhibition %=100−Average Viability

The test system of test [3] is human osteosarcoma cells (MG-63). The test can be described thus: Cytotoxicity by SRB assay, MG-63. The note with it: MG-63 cells, 0.01 μM to 100 μM for 72 h. The protocol:
as §2

Another test concerns Pseudomonas aeruginosa. Put plainly: Agar plate disc-diffusion, Pseudomonas aeruginosa. The note with it: gram-negative; disc 10 μL of 10 mg/mL in DMSO, 37° C., 48 h. The protocol: as §1
For another test, the system named is Staphylococcus aureus. Put plainly: Agar plate disc-diffusion, Staphylococcus aureus. The note with it: gram positive; disc 10 μL of 10 mg/mL in DMSO, 37° C., 48 h. The protocol:
as §1

On to `COc1ccc(-c2noc(CO)n2)cc1` [[3-(4-methoxyphenyl)-1,2,4-oxadiazol-5-yl]methanol], for which the antibacterial activity result with Escherichia coli, in the test with Bacillus cereus, in the test with Pseudomonas aeruginosa and in the test on Staphylococcus aureus was “high antimicrobial activities” in each case. Also, the antifungal activity entry (in the test with Aspergillus flavus; in test [1]) was “high antimicrobial activities” in each case. The antiproliferative activity result in test [2] and in test [3] was “excellent antiproliferative activities” in each case.
